Numbered stars: 1 amine (or outer) side, 2 acyl side, 3 side chain; on linkers, the order of the positions; unused ones are H or OH. Bridge positions count the residues as written; N and C are the ends. Square brackets hold non-standard residues; d marks the D form. Peptide text beside a SMILES is read from it. * marks the point of attachment. hPhe(3-Cl-4-CF3) = N[C@@H](CCc1ccc(C(F)(F)F)c(Cl)c1)C(=O)O; X13 = O=C([C@H](CCc1ccc(OC(F)(F)F)c(Cl)c1)N[*:1])[*:2]; X8 = CC(C)Oc1cc(CC[C@H](N[*:1])C(=O)[*:2])cc(Cl)c1Cl; hPhe(4-CF3) = N[C@@H](CCc1ccc(C(F)(F)F)cc1)C(=O)O; 3Oxa8azabicyclo(3.2.1)octane = C1CC2COCC1N2*; NEtPhe(4-Me) = CCN[C@@H](Cc1ccc(C)cc1)C(=O)O; NMePhe(4-Cl) = CN[C@@H](Cc1ccc(Cl)cc1)C(=O)O; NMePhe(4-Me) = CN[C@@H](Cc1ccc(C)cc1)C(=O)O; NMePhe(2-Cl) = CN[C@@H](Cc1ccccc1Cl)C(=O)O; NMedβ3hAla = C[C@H](CC(=O)[*:2])N(C)[*:1]; NMeGly(cPent) = CN[C@H](C(=O)O)C1CCCC1; X132 = O=C(CN(CCOCC(F)(F)F)[*:1])[*:2]; NMeCha = CN[C@@H](CC1CCCCC1)C(=O)O; NMeChg = CN[C@H](C(=O)O)C1CCCCC1; NMeD = CN[C@@H](CC(=O)O)C(=O)O; NMeL = CN[C@@H](CC(C)C)C(=O)O; NMeV = CN[C@H](C(=O)O)C(C)C; d(β3hA) = C[C@@H](N)CC(=O)O; NMeA = CN[C@@H](C)C(=O)O; NMeAib = CNC(C)(C)C(=O)O; Piperidide = C1CCN(*)CC1; dNMeA = CN[C@H](C)C(=O)O; Ac5c = NC1(C(=O)O)CCCC1; Aze = O=C(O)[C@@H]1CCN1; Sar = CNCC(=O)O
Biological target: protein-protein interaction between Kras and SOS1 (biotin-tagged human Kras loaded with GDP, His-tagged human SOS1) (Homo sapiens (Human), UniProt P01116, G12D)
Assay: Protein-protein interaction inhibition between Kras and SOS1 (KrasG12D-SOS PPI) using AlphaScreen;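 note: kras produced in E. coli, Ni-coupled donor beads and streptavidin acceptor beads, excitation 680 nm with emission detected at 520–620 nm via singlet oxygen transfer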
Format: biochemical
Conditions: AlphaScreen; biotin-tagged human Kras loaded with GDP, His-tagged human SOS1; read-out: KRAS G12D-SOS PPI IC50

SMILES | IC50 [nM]
CC[C@H](C)[C@@H]1NC(=O)[C@H](CC(C)C)N(C)C(=O)C[C@@H](C(=O)N2CCCCC2)N(C)C(=O)[C@H](C2CCCCC2)N(C)C(=O)C2(CCCC2)NC(=O)CN(CCOCC(F)(F)F)C(=O)[C@H](CCc2ccc(C(F)(F)F)c(Cl)c2)NC(=O)CN(C)C(=O)[C@H](CC2CCCCC2)N(C)C(=O)CN(C)C(=O)CN(C)C1=O [Compound 2024] ([NMeL]I[Sar][Sar][NMeCha][Sar][hPhe(3-Cl-4-CF3)][X132][Ac5c][NMeChg][NMeD]-Piperidide; lactam N-11 (inferred); C-terminus assumed) | 4.3
CC[C@H](C)[C@@H]1NC(=O)[C@H](C)N(C)C(=O)C[C@@H](C(=O)N2CCCCC2)N(C)C(=O)[C@H](C(C)C)N(C)C(=O)C2(CCCC2)NC(=O)[C@@H]2CCCN2C(=O)[C@H](CCc2cc(Cl)c(Cl)c(OC(C)C)c2)NC(=O)CN(C)C(=O)[C@H](CC2CCCCC2)N(C)C(=O)CN(C)C(=O)CN(C)C1=O [Compound 2079] ([NMeA]I[Sar][Sar][NMeCha][Sar][X8]P[Ac5c][NMeV][NMeD]-Piperidide; lactam N-11) | 17
CC[C@H](C)[C@@H]1NC(=O)[C@H](CC(C)C)N(C)C(=O)C[C@@H](C(=O)N2CCCCC2)N(C)C(=O)[C@H](C2CCCC2)N(C)C(=O)C2(CCCC2)NC(=O)[C@@H]2CCCN2C(=O)[C@H](CCc2ccc(OC(F)(F)F)c(Cl)c2)NC(=O)CN(C)C(=O)[C@H](CC2CCCCC2)N(C)C(=O)[C@@H]2CCN2C(=O)[C@H](C)N(C)C1=O [Compound 2057] ([NMeL]I[NMeA][Aze][NMeCha][Sar][X13]P[Ac5c][NMeGly(cPent)][NMeD]-Piperidide; lactam N-11 (inferred); C-terminus assumed) | 1.1
CC[C@H](C)[C@@H]1NC(=O)[C@H](CC(C)C)N(C)C(=O)C[C@@H](C(=O)N2C3CCC2COC3)N(C)C(=O)[C@H](C2CCCC2)N(C)C(=O)C2(CCCC2)NC(=O)[C@@H]2CCCN2C(=O)[C@H](CCc2ccc(C(F)(F)F)c(Cl)c2)NC(=O)CN(C)C(=O)[C@H](Cc2ccc(C)cc2)N(CC)C(=O)[C@@H]2CCN2C(=O)[C@H](C)N(C)C1=O [Compound 1236] ([NMeL]I[NMeA][Aze][NEtPhe(4-Me)][Sar][hPhe(3-Cl-4-CF3)]P[Ac5c][NMeGly(cPent)][NMeD]-{3Oxa8azabicyclo(3.2.1)octane}; lactam N-11) | 7.3
CC[C@H](C)[C@@H]1NC(=O)[C@H](CC(C)C)N(C)C(=O)C[C@@H](C(=O)N2CCCCC2)N(C)C(=O)[C@H](C(C)C)N(C)C(=O)C2(CCCC2)NC(=O)[C@@H]2CCCN2C(=O)[C@H](CCc2ccc(C(F)(F)F)c(Cl)c2)NC(=O)CN(C)C(=O)[C@H](CC2CCCCC2)N(C)C(=O)[C@@H]2CCN2C(=O)[C@H](C(C)C)N(C)C1=O [Compound 1592] ([NMeL]I[NMeV][Aze][NMeCha][Sar][hPhe(3-Cl-4-CF3)]P[Ac5c][NMeV][NMeD]-Piperidide; lactam N-11) | 210
CC[C@H](C)[C@@H]1NC(=O)[C@H](C)N(C)C(=O)C[C@@H](C)NC(=O)[C@H](C(C)C)N(C)C(=O)C2(CCCC2)NC(=O)[C@@H]2CCCN2C(=O)[C@H](CCc2ccc(C(F)(F)F)c(Cl)c2)NC(=O)[C@@H](C)N(C)C(=O)[C@H](CC2CCCCC2)N(C)C(=O)[C@@H]2CCN2C(=O)CN(C)C1=O [Compound 601] (cyclo([Ac5c][NMeV][d(β3hA)][NMeA]I[Sar][Aze][NMeCha][dNMeA][hPhe(3-Cl-4-CF3)]P)) | 87
CC[C@H](C)[C@@H]1NC(=O)[C@H](C)N(C)C(=O)C[C@@H](C(=O)N2CCCCC2)N(C)C(=O)[C@H](C(C)C)N(C)C(=O)C2(CCCC2)NC(=O)[C@H](Cc2ccccc2Cl)N(C)C(=O)[C@H](CCc2ccc(C(F)(F)F)c(Cl)c2)NC(=O)CN(C)C(=O)[C@H](Cc2ccc(C)cc2)N(C)C(=O)CN(C)C(=O)CN(C)C1=O [Compound 2007] ([NMeA]I[Sar][Sar][NMePhe(4-Me)][Sar][hPhe(3-Cl-4-CF3)][NMePhe(2-Cl)][Ac5c][NMeV][NMeD]-Piperidide; lactam N-11) | 230
CC[C@H](C)[C@@H]1NC(=O)[C@H](C)N(C)C(=O)C[C@@H](C(=O)N2CCCCC2)N(C)C(=O)[C@H](C2CCCCC2)N(C)C(=O)C2(CCCC2)NC(=O)[C@@H]2CCCN2C(=O)[C@H](CCc2cc(Cl)c(Cl)c(OC(C)C)c2)NC(=O)CN(C)C(=O)[C@H](CC2CCCCC2)N(C)C(=O)CN(C)C(=O)CN(C)C1=O [Compound 2062] ([NMeA]I[Sar][Sar][NMeCha][Sar][X8]P[Ac5c][NMeChg][NMeD]-Piperidide; lactam N-11) | 6.9
CC[C@H](C)[C@@H]1NC(=O)[C@H](C)N(C)C(=O)C[C@@H](C)N(C)C(=O)[C@H](CC(C)C)NC(=O)C(C)(C)N(C)C(=O)[C@H](CC(C)C)NC(=O)[C@H](CCc2ccc(C(F)(F)F)cc2)NC(=O)CN(C)C(=O)[C@H](Cc2ccc(Cl)cc2)N(C)C(=O)CN(C)C(=O)CN(C)C1=O [Compound 323] (cyclo(I[Sar][Sar][NMePhe(4-Cl)][Sar][hPhe(4-CF3)]L[NMeAib]L[NMedβ3hAla][NMeA])) | 140

Reference: patent US20240148821A1, “PHARMACEUTICAL USE OF CYCLIC PEPTIDE COMPOUND” (CHUGAI SEIYAKU KABUSHIKI KAISHA, priority 2021, published 2024)
